Data set [1] is described as follows: [18F]FHBG whole body biodistribution by PET (FIG. 2). Type of data set: in vivo, human. The source says: FIG. 2 is whole body coronal images of [^18F]FHBG biodistribution in a healthy human subject at four distinct time periods after 4.53 mCi i.v. injection of the [^18F]FHBG.
In some embodiments, the clearance pattern in a subject determines the length of time delay for measuring background and determining, for example, [^18F]FHBG imaging activity. […] Accordingly, depending upon the organ and subject individual, some time may be required for background levels to decrease in order to measure HSV-TK gene expression. […] In these organ systems, a sufficient threshold for gene therapy suitability may be, for example, at least above 1.0 SUV, at least above 1.5 SUV, at least above 2.0 SUV, at least above 2.5 SUV, at least above 3.0 SUV, at least above 3.5 SUV or at least above 4.0 SUV.
In contrast, some delay may be needed in order to image signals above background levels in, for example, the liver and kidneys. See Yaghoubi et al. Nat. Protocols at vol. 1, p. 3073. Because of the background signals in these organ systems, a sufficient threshold for determination of suitability for gene therapy treatment may be, for example, at least 10% above background, at least 15% above background, at least 20% above background, at least 25% above background, at least 30% above background, at least 35% above background, at least 40% above background, at least 45% above background, at least 50% above background, at least 55% above background, at least 60% above background, at least 65% above background, at least 70% above background, at least 75% above background, at least 80% above background, at least 85% above background, at least 90% above background, at least 95% above background or at least 100% or more above background when measured after a predetermined amount of time. […] Accordingly, [^18F]FHBG signal measurements in the liver should not be taken until after [^18F]FHBG signal levels have decreased to background, approximately 1 to 1½ hours, depending upon clearance rate in each individual subject.

The subject of the next data set is HSV-TK enzyme. The conditions noted are these: cited from earlier work.
A further data set deals with mammalian TK enzymes. Particulars: cited from earlier work.
Data set [2] has as its system cells containing HSV-TK-m2. Particulars: published observations; cited from earlier work.
The subject of another data set is cancer cells. The data set can be described thus: GCV mediated cancer cell kill assay after retroviral transduction. It is filed as cell-based. The conditions noted are these: following retroviral transduction delivery.
From the text: […]

The mark [3] stands for this setting: healthy human subject, 45.3 minutes to 80.3 minutes.
[4] abbreviates: healthy human subject, 83.3 minutes to 155.6 minutes.

This is an account of results in patent US10350302B2, “Thymidine kinase diagnostic assay for gene therapy applications” (GenVivo, Inc., priority 2013, dated 2019).

For the molecule `Nc1nc2c(ncn2CCC(CO)C[18F])c(=O)[nH]1` (stereo not drawn) [[^18F]FHBG, 9-[4-[^18F]Fluoro-3-(hydroxymethyl)butyl]guanine], the “background [18F]FHBG signal in the heart and lungs” value in data set [1] (healthy human subject, 4.53 mCi i.v., after administration) is “virtually no background”. In data set [1] (healthy human subject, 4.53 mCi i.v., between 7.6 and 42.6 minutes after administration), the “[18F]FHBG levels in the liver, kidneys and bladder” value is given as “high”. The “[18F]FHBG levels in the liver and kidneys” value in data set [1] (setting [3]) was “decreased significantly”; in data set [1] (setting [4]) it was “decreased even further”. Further, the “[18F]FHBG signal in the bladder” value in data set [1] (setting [3]) is given as “persistent high signal”; in data set [1] (setting [4]) it was “maintenance of high signal levels”. Also, in data set [1] (humans), the “[18F]FHBG background in most tissues outside the lower abdomen” value is given as “rapidly decreases”. In addition, the “affinity as substrate for HSV-TK enzyme” value in the data set with HSV-TK enzyme is given as “high affinity substrate”. In the data set on mammalian TK enzymes, the “affinity for mammalian TK enzymes” value is listed as “relative low affinity”.
Take `Nc1nc(O)c2ncn(COC(CO)CO)c2n1` [ganciclovir]: the “duration of ganciclovir sufficient to kill the majority of cells containing HSV-TK-m2” value in data set [2] is recorded as 5 days.

B1: SEQ ID NO: 18: optimized HSV-TK polynucleotide: A168H, nuclear export sequence, double mutated NLS, codon optimized, splice corrected (nucleic acid)
DNA: GTCAGCGGCCGCACCGGTACGCGTCCACCATGGCCCTGCAGAAAAAGCTGGAAGAGCTGGAACTGGATGGCAGCTACCCCGGCCACCAGCACGCCAGCGCCTTCGACCAGGCCGCCCGCAGCCGCGGCCACAGCAACGGCAGCACCGCACTGCGGCCAGGATCTCAGCAGGAGGCCACCGAGGTGCGCCCCGAGCAGAAGATGCCCACCCTGCTGCGCGTGTACATCGACGGACCACACGGCATGGGCAAGACCACCACCACCCAGCTGCTGGTGGCCCTGGGCAGCCGCGACGACATCGTGTACGTGCCCGAGCCCATGACCTACTGGCGCGTGCTGGGCGCCAGCGAGACCATCGCCAACATCTACACCACCCAGCACCGCCTGGACCAAGGCGAGATCAGCGCCGGCGACGCCGCCGTGGTGATGACCAGCGCCCAGATTACAATGGGCATGCCCTACGCCGTGACCGACGCCGTGCTGGCACCACACATCGGCGGCGAGGCCGGCAGCAGCCACGCACCACCACCAGCACTGACCCTGATCTTCGACCGGCACCCAATCGCACACCTGCTGTGCTACCCGGCAGCACGCTACCTGATGGGCTCCATGACACCACAAGCCGTGCTGGCCTTCGTGGCCCTGATCCCACCAACACTGCCCGGCACCAACATCGTGCTGGGCGCCCTGCCCGAGGACCGCCACATCGACCGCCTGGCCAAGCGCCAGCGCCCCGGCGAGCGCCTGGACCTGGCCATGCTGGCCGCCATCCGCCGCGTGTACGGCCTGCTGGCCAACACCGTGCGCTACCTGCAGTGCGGCGGCAGCTGGCGCGAGGACTGGGGCCAGCTGAGCGGCACCGCCGTGCCACCACAGGGCGCCGAGCCACAGAGCAACGCCGGACCACGACCACACATCGGCGACACCCTGTTCACCCTGTTCCGGGCACCAGAGCTGCTGGCACCAAACGGCGACCTGTACAACGTGTTCGCCTGGGCCCTGGACGTGCTGGCCAAGCGCCTGCGCTCCATGCACGTGTTCATCCTGGACTACGACCAGTCACCGGCCGGCTGCCGCGACGCCCTGCTGCAGCTGACCAGCGGCATGGTGCAGACCCACGTGACAACACCCGGCAGCATCCCAACAATCTGCGACCTGGCCCGCACCTTCGCCCGCGAGATGGGCGAGGCCAACTAATAGGGATCCCTCGAGAAGCTTGTCA
Turning to B1, the “pro-drug GCV enzyme activity and selectivity for ability to kill cancer cells” value with cancer cells is “exhibited pro-drug GCV enzyme activity and selectivity”.

B2: HSV-TK gene A168H and mutated at amino acids 159-161 from LIF to IFL: HSV-TK gene A168H also mutated at amino acids 159-161 from LIF to IFL (nucleic acid)
DNA: GTCAGCGGCCGCACCGGTACGCGTCCACCATGGCCAGCTACCCCGGCCACCAGCACGCCAGCGCCTTCGACCAGGCCGCCCGCAGCCGCGGCCACAGCAACGGCAGCACCGCACTGCGGCCACGGCGCCAGCAGGAGGCCACCGAGGTGCGCCCCGAGCAGAAGATGCCCACCCTGCTGCGCGTGTACATCGACGGACCACACGGCATGGGCAAGACCACCACCACCCAGCTGCTGGTGGCCCTGGGCAGCCGCGACGACATCGTGTACGTGCCCGAGCCCATGACCTACTGGCGCGTGCTGGGCGCCAGCGAGACCATCGCCAACATCTACACCACCCAGCACCGCCTGGACCAAGGCGAGATCAGCGCCGGCGACGCCGCCGTGGTGATGACCAGCGCCCAGATTACAATGGGCATGCCCTACGCCGTGACCGACGCCGTGCTGGCACCACACATCGGCGGCGAGGCCGGCAGCAGCCACGCACCACCACCAGCACTGACCATCTTCCTGGACCGGCACCCAATCGCACACCTGCTGTGCTACCCGGCAGCACGCTACCTGATGGGCTCCATGACACCACAAGCCGTGCTGGCCTTCGTGGCCCTGATCCCACCAACACTGCCCGGCACCAACATCGTGCTGGGCGCCCTGCCCGAGGACCGCCACATCGACCGCCTGGCCAAGCGCCAGCGCCCCGGCGAGCGCCTGGACCTGGCCATGCTGGCCGCCATCCGCCGCGTGTACGGCCTGCTGGCCAACACCGTGCGCTACCTGCAGTGCGGCGGCAGCTGGCGCGAGGACTGGGGCCAGCTGAGCGGCACCGCCGTGCCACCACAGGGCGCCGAGCCACAGAGCAACGCCGGACCACGACCACACATCGGCGACACCCTGTTCACCCTGTTCCGGGCACCAGAGCTGCTGGCACCAAACGGCGACCTGTACAACGTGTTCGCCTGGGCCCTGGACGTGCTGGCCAAGCGCCTGCGCTCCATGCACGTGTTCATCCTGGACTACGACCAGTCACCGGCCGGCTGCCGCGACGCCCTGCTGCAGCTGACCAGCGGCATGGTGCAGACCCACGTGACAACACCCGGCAGCATCCCAACAATCTGCGACCTGGCCCGCACCTTCGCCCGCGAGATGGGCGAGGCCAACTAATAGGGATCCCTCGAGAAGCTTGTCA
For B2, the “GCV mediated cancer kill activity” value with cancer cells (ganciclovir (GCV) pro-drug) is listed as “exhibited GCV mediated cancer cell kill activity”.
